Measured values from ChEMBL document CHEMBL3603834, “Syntheses and Biological Evaluation of Costunolide, Parthenolide, and Their Fluorinated Analogues” (J Med Chem, 2015).

tested on: C6; assay: Cytotoxicity against rat C6 cells; format: functional, cell-based; details: not given

| SMILES | IC50 |
| --- | --- |
| C=C1C(=O)O[C@H]2[C@H]1CC/C(CF)=C\CC[C@@]1(C)O[C@@H]21 | 2800 nM |
| C=C1CC[C@H]2C(=C)C(=O)O[C@@H]2[C@@H]2O[C@]2(C)CCC1F (some centres undefined) | 11300 nM |
| C=C1C(=O)O[C@H]2[C@H]1CC/C(C(F)F)=C\CC[C@@]1(C)O[C@@H]21 | 3400 nM |
| C=C1C(=O)O[C@H]2[C@H]1CC/C(C(F)(F)F)=C\CC[C@@]1(C)O[C@@H]21 | 3000 nM |
| C=C1C(=O)O[C@@H]2/C=C(\C)CC/C=C(/C(F)(F)F)CC[C@@H]12 | 5400 nM |
| C=C1C(=O)O[C@@H]2C3O[C@]3(C)CC/C=C(\C)CC[C@@H]12 (some centres undefined) | 2500 nM |
| C=C1C(=O)O[C@@H]2/C=C(\C)CC/C=C(\C)CC[C@@H]12 [COSTUNOLIDE] | 4100 nM |

tested on: HL-60; assay: Cytotoxicity against human HL60/A cells; format: functional, cell-based; details: not given

| SMILES | IC50 |
| --- | --- |
| C=C1C(=O)O[C@H]2[C@H]1CC/C(CF)=C\CC[C@@]1(C)O[C@@H]21 | 1500 nM |
| C=C1CC[C@H]2C(=C)C(=O)O[C@@H]2[C@@H]2O[C@]2(C)CCC1F (some centres undefined) | 9200 nM |
| C=C1C(=O)O[C@H]2[C@H]1CC/C(C(F)F)=C\CC[C@@]1(C)O[C@@H]21 | 2100 nM |
| C=C1C(=O)O[C@H]2[C@H]1CC/C(C(F)(F)F)=C\CC[C@@]1(C)O[C@@H]21 | 2000 nM |
| C=C1C(=O)O[C@@H]2/C=C(\C)CC/C=C(/C(F)(F)F)CC[C@@H]12 | 4900 nM |
| C=C1C(=O)O[C@@H]2C3O[C@]3(C)CC/C=C(\C)CC[C@@H]12 (some centres undefined) | 2000 nM |
| C=C1C(=O)O[C@@H]2/C=C(\C)CC/C=C(\C)CC[C@@H]12 [COSTUNOLIDE] | 5900 nM |

tested on: HL-60; assay: Cytotoxicity against human HL60 cells; format: functional, cell-based; details: not given

| SMILES | IC50 |
| --- | --- |
| C=C1C(=O)O[C@H]2[C@H]1CC/C(CF)=C\CC[C@@]1(C)O[C@@H]21 | 2000 nM |
| C=C1CC[C@H]2C(=C)C(=O)O[C@@H]2[C@@H]2O[C@]2(C)CCC1F (some centres undefined) | 11900 nM |
| C=C1C(=O)O[C@H]2[C@H]1CC/C(C(F)F)=C\CC[C@@]1(C)O[C@@H]21 | 2000 nM |
| C=C1C(=O)O[C@H]2[C@H]1CC/C(C(F)(F)F)=C\CC[C@@]1(C)O[C@@H]21 | 2100 nM |
| C=C1C(=O)O[C@@H]2/C=C(\C)CC/C=C(/C(F)(F)F)CC[C@@H]12 | 5000 nM |
| C=C1C(=O)O[C@@H]2C3O[C@]3(C)CC/C=C(\C)CC[C@@H]12 (some centres undefined) | 2000 nM |
| C=C1C(=O)O[C@@H]2/C=C(\C)CC/C=C(\C)CC[C@@H]12 [COSTUNOLIDE] | 2100 nM |

tested on: not listed separately; assay: Chemical stability of the compound in p-toluenesulfonic acid in dichloromethane after 48 hrs; format: physicochemical; details: not given

| Stability | SMILES |
| --- | --- |
| Stable | C=C1CC[C@H]2C(=C)C(=O)O[C@@H]2[C@@H]2O[C@]2(C)CCC1F (some centres undefined) |
| Stable | C=C1C(=O)O[C@H]2[C@H]1CC/C(C(F)F)=C\CC[C@@]1(C)O[C@@H]21 |
| Unstable | C=C1C(=O)O[C@@H]2C3O[C@]3(C)CC/C=C(\C)CC[C@@H]12 (some centres undefined) |

Further lines, the compound ahead of its results:

| SMILES | Stability |
| --- | --- |
| C=C1C(=O)O[C@H]2[C@H]1CC/C(CF)=C\CC[C@@]1(C)O[C@@H]21 | Stable |
| C=C1C(=O)O[C@H]2[C@H]1CC/C(C(F)(F)F)=C\CC[C@@]1(C)O[C@@H]21 | Stable |

tested on: not listed separately; assay: Half life in human liver microsomes by HPLC-MS/MS analysis in presence of NADPH; format: ADME; details: not given

| SMILES | half-life |
| --- | --- |
| C=C1C(=O)O[C@H]2[C@H]1CC/C(C(F)(F)F)=C\CC[C@@]1(C)O[C@@H]21 | 1.43 h |
| C=C1C(=O)O[C@@H]2C3O[C@]3(C)CC/C=C(\C)CC[C@@H]12 (some centres undefined) | 1.39 h |

tested on: not listed separately; assay: Half life in rat plasma; format: ADME, cell-free; details: not given

| SMILES | half-life |
| --- | --- |
| C=C1C(=O)O[C@H]2[C@H]1CC/C(C(F)(F)F)=C\CC[C@@]1(C)O[C@@H]21 | 0.338 h |
| C=C1C(=O)O[C@@H]2C3O[C@]3(C)CC/C=C(\C)CC[C@@H]12 (some centres undefined) | 0.278 h |
| C/C1=C\CC[C@@]2(C)O[C@H]2[C@H]2OC(=O)[C@@H](C)[C@@H]2CC1 | > 7 h |

tested on: not listed separately; assay: Cytotoxicity against human KG1a cells; format: functional, cell-based; details: KG-1a

| SMILES | IC50 |
| --- | --- |
| C=C1C(=O)O[C@H]2[C@H]1CC/C(CF)=C\CC[C@@]1(C)O[C@@H]21 | 2900 nM |
| C=C1CC[C@H]2C(=C)C(=O)O[C@@H]2[C@@H]2O[C@]2(C)CCC1F (some centres undefined) | 8600 nM |
| C=C1C(=O)O[C@H]2[C@H]1CC/C(C(F)F)=C\CC[C@@]1(C)O[C@@H]21 | 1800 nM |
| C=C1C(=O)O[C@H]2[C@H]1CC/C(C(F)(F)F)=C\CC[C@@]1(C)O[C@@H]21 | 2000 nM |
| C=C1C(=O)O[C@@H]2/C=C(\C)CC/C=C(/C(F)(F)F)CC[C@@H]12 | 5100 nM |
| C=C1C(=O)O[C@@H]2C3O[C@]3(C)CC/C=C(\C)CC[C@@H]12 (some centres undefined) | 2300 nM |
| C=C1C(=O)O[C@@H]2/C=C(\C)CC/C=C(\C)CC[C@@H]12 [COSTUNOLIDE] | 4100 nM |

tested on: not listed separately; assay: Metabolic stability in rat plasma assessed as compound degradation after 420 mins; format: ADME, cell-free; details: read-out: Drug degradation

| SMILES | metabolised at 7 h |
| --- | --- |
| C/C1=C\CC[C@@]2(C)O[C@H]2[C@H]2OC(=O)[C@@H](C)[C@@H]2CC1 | 20% |
